Experimental data from ChEMBL document CHEMBL1201862, “PubChem BioAssay data set” (2004).
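Values below derive from 48-hour exposures of cells grown in 96-well plates, with endpoints linearly interpolated between the two concentrations bracketing the appropriate inhibition level. GI50 is the concentration that inhibits growth by half.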 The source made the active and inactive calls. Rule as the data show it: active = GI50 up to about 1.1 µM and inactive = higher.

Experiments:
Experiment in all cases: growth of human tumour cells (NCI), 48 h
SW-620 = tested on: SW-620
EKVX = tested on: EKVX
HOP-92 = tested on: HOP-92
A498 = tested on: A498
SK-MEL-5 = tested on: SK-MEL-5
UO-31 = tested on: UO-31
MCF7 = tested on: MCF7
OVCAR-3 = tested on: OVCAR-3
OVCAR-4 = tested on: OVCAR-4
RPMI-8226 = tested on: RPMI-8226
MDA-MB-231 = tested on: MDA-MB-231
HOP-62 = tested on: HOP-62
HCT-116 = tested on: HCT-116
IGROV-1 = tested on: IGROV-1
SF-295 = tested on: SF-295
SR = tested on: SR
HCC 2998 = tested on: HCC 2998
KM12 = tested on: KM12
HL-60 = tested on: HL-60
OVCAR-5 = tested on: OVCAR-5
TK-10 = tested on: TK-10
COLO 205 = tested on: COLO 205
HCT-15 = tested on: HCT-15
T47D = tested on: T47D
CAKI-1 = tested on: CAKI-1
K562 = tested on: K562
ACHN = tested on: ACHN
NCI-H226 = tested on: NCI-H226
SF-268 = tested on: SF-268
CCRF-CEM = tested on: CCRF-CEM
U-251 = tested on: U-251
DU-145 = tested on: DU-145
A549 = tested on: A549
SN12C = tested on: SN12C
SNB-19 = tested on: SNB-19
NCI-H23 = tested on: NCI-H23
SNB-75 = tested on: SNB-75
NCI-H460 = tested on: NCI-H460
SK-MEL-2 = tested on: SK-MEL-2
HT-29 = tested on: HT-29
UACC-62 = tested on: UACC-62
NCI/ADR-RES = tested on: NCI/ADR-RES
LOX IMVI = tested on: LOX IMVI
UACC-257 = tested on: UACC-257
SF-539 = tested on: SF-539
BT-549 = tested on: BT-549
MOLT-4 = tested on: MOLT-4
PC-3 = tested on: PC-3
OVCAR-8 = tested on: OVCAR-8
SK-OV-3 = tested on: SK-OV-3
MDA-N = tested on: MDA-N
786-0 = tested on: 786-0
NCI-H522 = tested on: NCI-H522
Hs-578T = tested on: Hs-578T
RXF 393 = tested on: RXF 393
M14 = tested on: M14
MDA-MB-435 = tested on: MDA-MB-435
SK-MEL-28 = tested on: SK-MEL-28

**Q.** What does the source list for `Cc1ccc(NC(=S)N/N=C(/c2ccccc2)c2ccccn2)cc1`?
**A.** GI50 (SW-620): < 0.0183 µM (active); GI50 (EKVX): 0.0675 µM (active); GI50 (HOP-92): 0.278 µM (active); GI50 (A498): 0.815 µM (active); GI50 (SK-MEL-5): 0.0933 µM (active); GI50 (UO-31): 0.177 µM (active); GI50 (MCF7): 0.0164 µM (active); GI50 (OVCAR-3): 0.0169 µM (active); GI50 (OVCAR-4): 0.241 µM (active); GI50 (RPMI-8226): < 0.0161 µM (active); GI50 (MDA-MB-231): < 0.01 µM (active); GI50 (HOP-62): 0.16 µM (active); GI50 (HCT-116): < 0.01 µM (active); GI50 (IGROV-1): < 0.0173 µM (active); GI50 (SF-295): 0.212 µM (active); GI50 (SR): < 0.01 µM (active); GI50 (HCC 2998): 2.22 µM (inactive); GI50 (KM12): 0.1 µM (active); GI50 (HL-60): < 0.0121 µM (active); GI50 (OVCAR-5): 0.0233 µM (active); GI50 (TK-10): 0.0631 µM (active); GI50 (COLO 205): < 0.0166 µM (active); GI50 (HCT-15): < 0.019 µM; GI50 (T47D): < 0.0509 µM (active); GI50 (CAKI-1): 0.059 µM (active); GI50 (K562): < 0.0117 µM (active); GI50 (ACHN): < 0.0371 µM (active); GI50 (NCI-H226): 0.124 µM (active); GI50 (SF-268): < 0.0233 µM (active); GI50 (CCRF-CEM): 0.0109 µM (active); GI50 (U-251): 0.0265 µM (active); GI50 (DU-145): 0.938 µM (active); GI50 (A549): 0.108 µM (active); GI50 (SN12C): 0.121 µM (active); GI50 (SNB-19): 3.27 µM (inactive); GI50 (NCI-H23): < 0.0187 µM (active); GI50 (SNB-75): 0.343 µM (active); GI50 (NCI-H460): 0.117 µM (active); GI50 (SK-MEL-2): 4.52 µM (inactive); GI50 (HT-29): 0.0541 µM (active); GI50 (UACC-62): 0.304 µM (active); GI50 (NCI/ADR-RES): 0.0302 µM (active); GI50 (LOX IMVI): 0.0346 µM (active); GI50 (UACC-257): < 0.0156 µM (active); GI50 (SF-539): 0.729 µM (active); GI50 (BT-549): 4.25 µM (inactive); GI50 (MOLT-4): < 0.0118 µM (active); GI50 (PC-3): < 0.0154 µM (active); GI50 (OVCAR-8): 0.0569 µM (active); GI50 (SK-OV-3): 0.0308 µM (active); GI50 (MDA-N): 0.708 µM (active); GI50 (786-0): 0.0284 µM (active); GI50 (NCI-H522): 1.31 µM (inactive); GI50 (Hs-578T): 13.1 µM (inactive); GI50 (RXF 393): 0.621 µM (active); GI50 (M14): < 0.01 µM (active); GI50 (MDA-MB-435): 0.4 µM (active); GI50 (SK-MEL-28): 0.224 µM (active)

**Q.** With `CSc1ncc2c(C#N)c3[nH]c4ccccc4n3c(=O)c2n1` as the compound, how does the GI50 (SW-620) read?
**A.** 23.6 µM (inactive)

**Q.** What about the GI50 (EKVX) of the same compound?
**A.** 33.9 µM (inactive)

**Q.** And the GI50 (HOP-92)?
**A.** 4.2 µM (inactive)

**Q.** What about the GI50 (A498) of the same compound?
**A.** 9.84 µM (inactive)

**Q.** What about the GI50 (SK-MEL-5) of the same compound?
**A.** 10.6 µM (inactive)

**Q.** And the GI50 (UO-31)?
**A.** 8.13 µM (inactive)

**Q.** What about the GI50 (MCF7) of the same compound?
**A.** 19.7 µM (inactive)

**Q.** What about the GI50 (OVCAR-3) of the same compound?
**A.** 6.7 µM (inactive)

**Q.** What about the GI50 (OVCAR-4) of the same compound?
**A.** 6.84 µM (inactive)

**Q.** What about the GI50 (RPMI-8226) of the same compound?
**A.** 1.88 µM (inactive)

**Q.** What about the GI50 (MDA-MB-231) of the same compound?
**A.** 26.6 µM (inactive)

**Q.** And the GI50 (HOP-62)?
**A.** 19.8 µM (inactive)

**Q.** And the GI50 (HCT-116)?
**A.** 13.1 µM (inactive)

**Q.** What about the GI50 (IGROV-1) of the same compound?
**A.** 18.1 µM (inactive)

**Q.** What about the GI50 (SF-295) of the same compound?
**A.** 9.84 µM (inactive)

**Q.** What about the GI50 (SR) of the same compound?
**A.** 9.89 µM (inactive)

**Q.** And the GI50 (HCC 2998)?
**A.** 10.9 µM (inactive)

**Q.** And the GI50 (KM12)?
**A.** 8.63 µM (inactive)

**Q.** And the GI50 (HL-60)?
**A.** 7.29 µM (inactive)

**Q.** What about the GI50 (OVCAR-5) of the same compound?
**A.** 55.1 µM (inactive)

**Q.** And the GI50 (TK-10)?
**A.** 31.5 µM (inactive)

**Q.** What about the GI50 (COLO 205) of the same compound?
**A.** 17 µM (inactive)

**Q.** What about the GI50 (HCT-15) of the same compound?
**A.** 9.71 µM

**Q.** What about the GI50 (T47D) of the same compound?
**A.** 22.9 µM (inactive)

**Q.** And the GI50 (CAKI-1)?
**A.** 22.8 µM (inactive)

**Q.** And the GI50 (K562)?
**A.** 5.18 µM (inactive)

**Q.** What about the GI50 (ACHN) of the same compound?
**A.** 33.1 µM (inactive)

**Q.** What about the GI50 (NCI-H226) of the same compound?
**A.** 34.1 µM (inactive)

**Q.** What about the GI50 (SF-268) of the same compound?
**A.** 28 µM (inactive)

**Q.** What about the GI50 (CCRF-CEM) of the same compound?
**A.** 4.92 µM (inactive)

**Q.** And the GI50 (U-251)?
**A.** 15.8 µM (inactive)

**Q.** What about the GI50 (DU-145) of the same compound?
**A.** 28.8 µM (inactive)

**Q.** And the GI50 (SN12C)?
**A.** 16 µM (inactive)

**Q.** What about the GI50 (SNB-19) of the same compound?
**A.** 16.9 µM (inactive)

**Q.** What about the GI50 (NCI-H23) of the same compound?
**A.** 14.8 µM (inactive)

**Q.** And the GI50 (SNB-75)?
**A.** 44.7 µM (inactive)

**Q.** What about the GI50 (NCI-H460) of the same compound?
**A.** 13.3 µM (inactive)

**Q.** What about the GI50 (SK-MEL-2) of the same compound?
**A.** 8.49 µM (inactive)

**Q.** And the GI50 (UACC-62)?
**A.** 4.61 µM (inactive)

**Q.** And the GI50 (NCI/ADR-RES)?
**A.** 4.89 µM (inactive)

**Q.** And the GI50 (LOX IMVI)?
**A.** 21.7 µM (inactive)

**Q.** What about the GI50 (UACC-257) of the same compound?
**A.** 30.7 µM (inactive)

**Q.** And the GI50 (SF-539)?
**A.** 17.3 µM (inactive)

**Q.** What about the GI50 (BT-549) of the same compound?
**A.** 20.6 µM (inactive)

**Q.** And the GI50 (MOLT-4)?
**A.** 4.28 µM (inactive)

**Q.** And the GI50 (PC-3)?
**A.** 5.83 µM (inactive)

**Q.** And the GI50 (OVCAR-8)?
**A.** 7.85 µM (inactive)

**Q.** What about the GI50 (SK-OV-3) of the same compound?
**A.** 29.4 µM (inactive)

**Q.** And the GI50 (MDA-N)?
**A.** 24.3 µM (inactive)

**Q.** And the GI50 (786-0)?
**A.** 31.7 µM (inactive)

**Q.** What about the GI50 (NCI-H522) of the same compound?
**A.** 7.52 µM (inactive)

**Q.** What about the GI50 (Hs-578T) of the same compound?
**A.** 30.6 µM (inactive)

**Q.** What about the GI50 (RXF 393) of the same compound?
**A.** 7.53 µM (inactive)

**Q.** What about the GI50 (M14) of the same compound?
**A.** 16.7 µM (inactive)

**Q.** What about the GI50 (MDA-MB-435) of the same compound?
**A.** 16.9 µM (inactive)
